Source: paper PMC5282547, “The Proline/Arginine Dipeptide from Hexanucleotide Repeat Expanded C9ORF72 Inhibits the Proteasome” (eNeuro, 2017)
Like-named read-outs stand apart in the source and are kept apart here. Where no end group is shown, it is not given here.

What was measured:
[1] = system: Dendra2; assay: Optical pulse labeling of Dendra2; format: cell-based, rat; conditions: 2 µM peptide; vehicle 29.6 h; not significantly different from vehicle
Method: (§1) Primary spinal neurons were dissected from E15 rat pups and cultured at a density of 2.5 × 10^5 cells/ml on a laminin/poly-lysine-coated 96-well plate in motor neuron media. Four days after plating, neurons were transfected with Lipofectamine 2000 (Invitrogen). DNA-Lipofectamine mixtures were incubated with neurons for 20 min followed by rinsing. Neurons were then placed in 100 µL of conditioned media that was collected immediately prior to transfection and half fresh motor neuron media containing 4 µM PR20, resulting in a final concentration of 2 µM PR20.
(§2) Optical pulse labeling experiments were performed using an automated microscopy platform previously described by [Arrasate et al. (2004)] and [Barmada et al. (2014)]. A Nikon Eclipse Ti inverted microscope equipped with a PerfectFocus system, 20× objective lens and an Andor iXon3 897 EMCCD camera were used to acquire images. Samples were illuminated with a Sutter Instruments Lamba XL lamp. The microscope and related components were encased in custom-built plexiglass enclosure set to maintain the temperature at 37°C and CO2 at 5%. Semrock GFP and TRITC filters were used for excitation and detection. A Semrock 405-nm long-pass filter was used for photoactivation. Image acquisition and stage movements were accomplished in an automated fashion using µManager and original code written in BeanShell. For all experiments, photoconversion occurred 24 h following transfection. GFP and TRITC images were acquired immediately following activation and subsequently every 2 h for 12 h. Images were acquired in a similar 12-h window starting 48 h after PR20 treatment. Using in-house image analysis scripts, neuronal cell bodies were identified based on their fluorescent intensity and morphology, and a ROI was drawn around the perimeter of each cell at each time. Single-cell TRITC intensity values were recorded and used to fit a first order exponential decay curve for individual neurons and calculate a Dendra2-light chain 3 (LC3) half-life for each cell. […]

[2] = system: human proteasomes; assay: Direct interaction with human proteasomes (streptavidin pull-down, anti-HA immunoblot); format: binding; conditions: 2 µM HA-tagged peptide, HEK293T extracts with HTBH-tagged β4 subunits, 2 h at 4 °C
Method: Whole-cell extracts from a stable HEK293T cell line harboring HTBH-tagged β4 subunits were prepared as in Han et al. (2014) and incubated with HA-tagged PR20 or GR20 peptides (2 µM) 2 h at 4 °C. The resulting proteasome-dipeptide complexes were pull-downed with streptavidin agarose beads (Millipore) for 3 h at 4 °C. Unbound proteasomes in the supernatants were discarded, and the pellets were mixed with 2× SDS sample buffer. Different amounts of samples were resolved by SDS-PAGE/immunoblotting against HA and a proteasome core particle α3 subunit.

[3] = system: U2OS cells and human astrocytes; conditions: depending on the specific assay; ref Kwon et al., 2014; cited from earlier work
Source text: The difficulty of distinguishing between toxic HRE mRNA and DPR proteins has impeded our understanding of the mechanism underlying C9ORF72 HRE pathophysiology. As reported in Science ([Kwon et al., 2014]), the McKnight lab devised a strategy to overcome this problem: they studied U2OS cells and human astrocytes directly exposed to synthetic DPR proteins. […] We built upon this approa ...

[4] = system: phosphorylated AMPK; assay: Immunoblot for mitochondrial dysfunction; format: cell-based, rat; conditions: 2 µM, 48 h, immunoblot normalized to actin
Method: (§3) All plates were incubated with PR20 for 48 h.

[5] = system: Dendra2-LC3; assay: Autophagic flux assay, optical pulse labeling of Dendra2-LC3; format: cell-based, rat; conditions: 2 µM peptide, primary spinal neurons, single-cell optical pulse labeling
Method: as §1, §2

[6] = system: phosphorylated S6K and 4EBP1; assay: Immunoblot for mTOR pathway activation; format: cell-based, rat; conditions: 2 µM, 48 h, immunoblot normalized to actin
Method: as §3
Once scanning of the nitrocellulose membranes probed for 4EBP1/P-4EBP1 and S6K/P-S6K had been completed, Restore Western Blot Stripping Buffer (Thermo Fisher Scientific) was used to strip the blot of antibodies. The membranes were washed twice in PBS-T for 10 min each and then placed in the stripping buffer for 22 min. The membranes were then washed twice once again in PBS-T for 10 min. They were then placed in blocking solution (5% w/v milk in PBS-T) for 45 min.

[7] = system: mixed spinal cord cultures; assay: Cellular accumulation and disposal of HA-tagged DPR (immunoblot of cell lysates, continuous exposure or 2-h pulse-chase)
Method: Confluent dishes of astrocyte neuron cocultures at 37°C had volumes equalized to 2 ml of cell culture media each. Approximately 300 μl of media from each dish was removed and pooled with other dishes, PR20 stock solution was added, and the mixture was then added back to the corresponding culture dish, so that each dish contained a final concentration of 2 μM. All plates were incubated with PR20 for 48 h.
Lysis buffer was prepared containing 1% (v/v) protease inhibitor cocktail, 1% (v/v) PMSF, and 1% (v/v) leucine in 1% RIPA buffer solution on ice. Culture dishes were washed once with ice-cold PBS to remove any remaining media. A total of 125 μl (35-mm dish), 150 μl (6-well plate), or 250 μL (60-mm dish) of lysis buffer was added to each plate, and cells were scraped into a cold 1.5-ml tube. Samples were sonicated for 30 s at 20% intensity, placed on a rotator at 4°C for 20 min, and then centrifuged for 15 min at 13,200 rpm. Supernatant was then removed from each tube for further analysis.
We investigated the fate of PR20 in mixed spinal cord cultures through immunoblotting and immunocytochemistry. […] To gain further insight into the kinetics of the observed decrease in PR20 levels in cell lysates over time, we pulsed cells with 2 µM PR20 for 2 h, washed, replaced with fresh media (lacking PR20), and made cell lysates at regular intervals thereafter. […] To more easily follow GR20 by immunoblotting, we applied 10 µM GR20 to cultures and performed the same kinetic analysis as described in Figure 1D.

[8] = system: purified affinity-purified human proteasomes; format: biochemical; conditions: for Δ0–5 of Ub-Sic1 signal compared with the no PR20 group: 20 nM Ub-Sic1, n = 3, p < 0.05
Method: Polyubiquitylated Sic1 proteins with PY degron motifs and T7 tag (Ub-Sic1) was prepared as previously described by [Choi et al. (2016)]. Different concentrations of PR20 peptides (0, 50, or 500 nM) and purified affinity-purified human proteasomes (5 nM) were preincubated 20 min in proteasome assay buffer [50 mM Tris-HCl (pH 7.5), 100 mM NaCl, 10% glycerol, 2 mM ATP, 10 mM MgCl2, and 1 mM DTT] on ice, and 20 nM reconstituted Ub-Sic1 was subsequently added. Degradation of Ub-Sic1 and PR20 peptides was monitored by immunoblotting using anti-T7 and anti-HA antibodies, respectively. Band intensities were quantified using ImageJ software (version 1.48k, NIH) from three independent immunoblotting assays (n = 3).

[9] = system: motor neurons; assay: Motor neuron survival with IU1 co-treatment; format: cell-based, rat; conditions: PR20 treatment without IU1, 5 d
Method: Days in vitro (DIV)14 mixed spinal cord cultures were exposed to PR20 or GR20 by addition of synthetic peptide to the media one time. Cultures were fixed 5 d later with freshly prepared 4% paraformaldehyde for 20 min, washed extensively with 0.1 M PBS, pH 7.4, and immunostained with SMI32 to identify motor neurons. […] Motor neurons were counted in three nonoverlapping, randomly selected fields on a coverslip using a 5[times objective, and the values from a single coverslip averaged.
For experiments involving IU1, DIV14 cultures were treated with PR20 or its vehicle, and every other day, IU1 (or vehicle) was added to the culture media to achieve a final concentration of 5 µM. At DIV19, cultures were fixed and motor neuron number determined as described above.

[10] = 2 µM in media, continuous exposure

Sequence: PRPRPRPRPRPRPRPRPRPRPRPRPRPRPRPRPRPRPRPRYPYDVPDYA [PR20]
- Dendra2 half-life [1]: 30.5 h
- association with proteasomes in pull-down [2]: associates with proteasomes
- toxic concentration range [3]: 10 to 30 µM
- mitochondrial dysfunction (phosphorylated AMPK) versus vehicle [4]: no statistically significant differences
- extension of Dendra2-LC3 half-life compared with control [5]: ~5.6 h
- activation level of the mTOR pathway versus vehicle [6]: no statistically significant differences
- time of maximum immunoblot signal in cell lysates [7, 10]: 1.0 to 2.0 h
- time point at which immunoblot signal is undetectable [7, 10]: 48 h
- time at which peptide is first detectable in cell lysates ([7]; 2 µM in media, continuous exposure, anti-HA immunoblot): approximately 0.5 h
- decrement in peptide abundance with versus without bafilomycin A1 in the chase media ([7]; 2-h pulse with 2 µM, chase with Baf A1 400 nM): the same
- loss of peptide with MG132 versus vehicle in the chase media ([7]; 2-h pulse with 2 µM, chase with MG132 5 µM): indistinguishable
- lysate fractions with detectable Western blot signal at the 2-h time point ([7]; 2-h pulse-chase, 2 µM): soluble and insoluble fractions
- time point by which signal diminishes to a barely detectable level ([7]; 2-h pulse-chase, 2 µM): 6 h
- half-life of dipeptide in cells ([7]; immunoblot of mixed spinal cord culture lysates): on the orders of hours
- degradation of the peptide by purified 26S proteasomes ([8]; 0, 5 and 15 min, anti-HA immunoblot, pH 7.5 assay buffer with ATP): not itself degraded
- Δ0–5 of Ub-Sic1 signal compared with the no PR20 group ([8]; 1:10 proteasomes:PR20 (5 nM proteasomes, 50 nM PR20)): statistically significant less
- Δ0–15 of Ub-Sic1 signal compared with the no PR20 group ([8]; 1:10 proteasomes:PR20, n = 3, p < 0.05): statistically significantly less
- Δ0–5 of Ub-Sic1 signal compared with the no PR20 group ([8]; 1:100 proteasomes:PR20 (5 nM proteasomes, 500 nM PR20)): statistically significant less
- Δ0–15 of Ub-Sic1 signal compared with the no PR20 group ([8]; 1:100 proteasomes:PR20, n = 3, p < 0.05): statistically significantly less
- loss of motor neurons [9]: approximately 50%
